What was measured:
Type in all cases: biochemical
[1] = molecular target: LYNA (Homo sapiens, UniProt P07948); assay: Kinome profiling LYNA; conditions: read-out: Inhibitory activity LYNA; for inhibition at 0.1 µM: 100 nM
Procedure: (§1) . The kinome-wide selectivity was determined following the methods previously reported by Mohedas et al., ACS Chem Biol 2013, 8, 1291-1302 and Sanvitale et al., PLoS One 2013, 8, e62721.

[2] = molecular target: BRAF (Homo sapiens, UniProt P15056); assay: Kinome profiling BRAF; conditions: read-out: Inhibitory activity BRAF; for inhibition at 0.1 µM: 100 nM
Chain of BRAF (P15056 whole entry): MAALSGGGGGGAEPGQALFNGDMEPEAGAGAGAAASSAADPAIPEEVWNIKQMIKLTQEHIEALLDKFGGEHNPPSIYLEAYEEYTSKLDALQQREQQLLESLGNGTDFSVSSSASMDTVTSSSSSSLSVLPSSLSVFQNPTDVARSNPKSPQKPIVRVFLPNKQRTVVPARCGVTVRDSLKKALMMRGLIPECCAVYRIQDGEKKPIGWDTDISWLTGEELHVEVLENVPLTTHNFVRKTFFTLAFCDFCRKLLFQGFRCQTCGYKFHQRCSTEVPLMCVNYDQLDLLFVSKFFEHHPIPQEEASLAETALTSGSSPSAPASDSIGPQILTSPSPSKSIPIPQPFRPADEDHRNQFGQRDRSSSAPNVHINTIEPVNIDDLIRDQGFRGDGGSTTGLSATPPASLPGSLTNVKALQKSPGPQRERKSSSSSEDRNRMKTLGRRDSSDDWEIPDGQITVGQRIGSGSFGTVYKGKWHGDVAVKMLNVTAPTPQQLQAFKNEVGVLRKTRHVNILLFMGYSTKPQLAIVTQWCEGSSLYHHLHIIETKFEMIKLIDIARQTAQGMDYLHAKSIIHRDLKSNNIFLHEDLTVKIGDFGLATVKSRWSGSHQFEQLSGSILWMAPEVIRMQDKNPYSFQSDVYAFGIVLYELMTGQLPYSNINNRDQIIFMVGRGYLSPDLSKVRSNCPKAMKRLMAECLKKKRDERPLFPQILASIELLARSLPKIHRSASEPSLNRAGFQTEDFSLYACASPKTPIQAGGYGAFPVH
Procedure: as §1

[3] = molecular target: MET (Homo sapiens, UniProt P08581); assay: Kinome profiling MET; conditions: read-out: Inhibitory activity MET; for inhibition at 0.1 µM: 100 nM
Procedure: as §1

[4] = molecular target: PAR-1Bα (Homo sapiens, UniProt Q7KZI7); assay: Kinome profiling PAR-1Bα; conditions: read-out: Inhibitory activity PAR-1Bα; for inhibition at 0.1 µM: 100 nM
Chain of PAR-1Bα (Q7KZI7 1-725 isoform Q7KZI7-4): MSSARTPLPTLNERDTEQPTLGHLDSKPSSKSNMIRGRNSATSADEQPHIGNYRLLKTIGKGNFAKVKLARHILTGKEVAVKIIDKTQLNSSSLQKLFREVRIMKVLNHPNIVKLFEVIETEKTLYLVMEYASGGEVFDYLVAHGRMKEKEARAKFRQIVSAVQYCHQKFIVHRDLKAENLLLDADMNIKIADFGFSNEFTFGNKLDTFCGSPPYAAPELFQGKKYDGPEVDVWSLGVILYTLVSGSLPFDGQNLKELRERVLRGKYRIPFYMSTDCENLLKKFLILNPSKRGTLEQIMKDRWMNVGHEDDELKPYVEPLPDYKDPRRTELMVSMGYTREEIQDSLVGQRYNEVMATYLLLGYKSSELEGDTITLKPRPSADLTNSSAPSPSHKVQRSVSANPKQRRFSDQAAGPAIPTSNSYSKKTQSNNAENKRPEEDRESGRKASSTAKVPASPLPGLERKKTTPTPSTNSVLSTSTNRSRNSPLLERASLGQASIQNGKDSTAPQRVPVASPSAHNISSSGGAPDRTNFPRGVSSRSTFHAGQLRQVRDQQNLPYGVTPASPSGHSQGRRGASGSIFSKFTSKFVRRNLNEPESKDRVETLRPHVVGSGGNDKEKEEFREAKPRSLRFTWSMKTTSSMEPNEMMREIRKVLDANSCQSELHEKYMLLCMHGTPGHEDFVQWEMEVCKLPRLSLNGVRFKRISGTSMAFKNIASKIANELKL
Procedure: as §1

[5] = molecular target: P38α (Homo sapiens, UniProt Q16539); assay: Kinome profiling P38α; conditions: read-out: Inhibitory activity P38α; for inhibition at 0.1 µM: 100 nM
Procedure: as §1

[6] = molecular target: INSR (Homo sapiens, UniProt P06213); assay: Kinome profiling INSR; conditions: read-out: Inhibitory activity INSR; for inhibition at 0.1 µM: 100 nM
Chain of INSR (P06213 28-1382): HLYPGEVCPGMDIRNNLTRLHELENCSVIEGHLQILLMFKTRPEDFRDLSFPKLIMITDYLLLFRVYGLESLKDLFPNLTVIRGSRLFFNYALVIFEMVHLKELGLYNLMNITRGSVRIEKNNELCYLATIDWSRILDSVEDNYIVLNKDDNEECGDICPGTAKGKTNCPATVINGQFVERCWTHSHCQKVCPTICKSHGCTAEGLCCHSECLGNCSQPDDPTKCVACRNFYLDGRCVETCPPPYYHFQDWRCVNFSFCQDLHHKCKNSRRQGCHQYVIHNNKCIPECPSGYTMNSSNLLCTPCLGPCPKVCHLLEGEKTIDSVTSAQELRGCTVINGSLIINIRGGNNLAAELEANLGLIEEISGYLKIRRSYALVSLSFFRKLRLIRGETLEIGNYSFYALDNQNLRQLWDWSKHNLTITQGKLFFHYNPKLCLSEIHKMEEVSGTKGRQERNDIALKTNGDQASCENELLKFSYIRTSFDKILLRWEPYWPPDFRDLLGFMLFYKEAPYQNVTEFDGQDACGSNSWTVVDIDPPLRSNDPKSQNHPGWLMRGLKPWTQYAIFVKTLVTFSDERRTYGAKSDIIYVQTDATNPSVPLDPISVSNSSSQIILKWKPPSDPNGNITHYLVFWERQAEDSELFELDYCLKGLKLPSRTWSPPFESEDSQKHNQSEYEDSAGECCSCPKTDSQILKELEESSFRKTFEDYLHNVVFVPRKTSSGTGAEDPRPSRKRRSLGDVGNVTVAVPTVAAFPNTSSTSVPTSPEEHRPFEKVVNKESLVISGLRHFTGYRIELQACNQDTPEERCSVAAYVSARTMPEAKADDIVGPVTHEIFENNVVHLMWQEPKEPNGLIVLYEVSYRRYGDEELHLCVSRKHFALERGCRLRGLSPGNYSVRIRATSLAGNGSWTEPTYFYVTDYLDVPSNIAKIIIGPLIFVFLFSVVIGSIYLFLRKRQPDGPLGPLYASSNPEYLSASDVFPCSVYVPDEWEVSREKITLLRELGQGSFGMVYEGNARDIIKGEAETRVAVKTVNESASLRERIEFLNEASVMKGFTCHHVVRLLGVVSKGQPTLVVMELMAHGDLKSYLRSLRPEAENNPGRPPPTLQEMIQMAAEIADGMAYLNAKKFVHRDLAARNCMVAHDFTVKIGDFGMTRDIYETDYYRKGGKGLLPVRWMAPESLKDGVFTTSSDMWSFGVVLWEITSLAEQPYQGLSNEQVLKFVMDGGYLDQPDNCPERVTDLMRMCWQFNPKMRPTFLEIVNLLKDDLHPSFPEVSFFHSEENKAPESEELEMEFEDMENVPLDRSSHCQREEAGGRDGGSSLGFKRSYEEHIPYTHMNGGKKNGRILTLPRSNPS
Procedure: as §1

[7] = molecular target: PAK1 (Homo sapiens, UniProt Q13153); assay: Kinome profiling PAK1; conditions: read-out: Inhibitory activity PAK1; for inhibition at 0.1 µM: 100 nM
Procedure: as §1

[8] = molecular target: TRKA (Homo sapiens, UniProt P04629); assay: Kinome profiling TRKA; conditions: read-out: Inhibitory activity TRKA; for inhibition at 0.1 µM: 100 nM
Chain of TRKA (P04629 33-796): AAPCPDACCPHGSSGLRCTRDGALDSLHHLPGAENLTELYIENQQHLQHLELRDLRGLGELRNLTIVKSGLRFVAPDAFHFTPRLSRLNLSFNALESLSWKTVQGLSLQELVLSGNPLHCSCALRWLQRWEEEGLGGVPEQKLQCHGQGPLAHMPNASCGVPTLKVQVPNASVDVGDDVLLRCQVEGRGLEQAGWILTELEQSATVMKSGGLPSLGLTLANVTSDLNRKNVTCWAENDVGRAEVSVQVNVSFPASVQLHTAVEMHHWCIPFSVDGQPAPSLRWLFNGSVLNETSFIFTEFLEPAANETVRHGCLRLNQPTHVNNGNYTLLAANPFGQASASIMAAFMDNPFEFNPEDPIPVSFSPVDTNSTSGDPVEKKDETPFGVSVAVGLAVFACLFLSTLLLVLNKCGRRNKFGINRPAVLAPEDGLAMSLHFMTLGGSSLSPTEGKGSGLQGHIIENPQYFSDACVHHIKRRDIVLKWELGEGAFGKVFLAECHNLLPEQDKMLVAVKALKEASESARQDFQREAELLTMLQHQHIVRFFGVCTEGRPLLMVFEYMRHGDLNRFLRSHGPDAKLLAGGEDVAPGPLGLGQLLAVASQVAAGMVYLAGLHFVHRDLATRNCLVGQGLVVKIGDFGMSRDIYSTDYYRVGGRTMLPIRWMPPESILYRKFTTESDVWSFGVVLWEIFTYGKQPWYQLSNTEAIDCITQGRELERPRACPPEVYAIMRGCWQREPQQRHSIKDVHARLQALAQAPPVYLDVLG
Procedure: as §1

[9] = molecular target: TRKB (Homo sapiens, UniProt Q16620); assay: Kinome profiling TRKB; conditions: read-out: Inhibitory activity TRKB; for inhibition at 0.1 µM: 100 nM
Procedure: as §1

[10] = molecular target: RSK3 (Homo sapiens, UniProt Q15349); assay: Kinome profiling RSK3; conditions: read-out: Inhibitory activity RSK3; for inhibition at 0.1 µM: 100 nM
Chain of RSK3 (Q15349 whole entry): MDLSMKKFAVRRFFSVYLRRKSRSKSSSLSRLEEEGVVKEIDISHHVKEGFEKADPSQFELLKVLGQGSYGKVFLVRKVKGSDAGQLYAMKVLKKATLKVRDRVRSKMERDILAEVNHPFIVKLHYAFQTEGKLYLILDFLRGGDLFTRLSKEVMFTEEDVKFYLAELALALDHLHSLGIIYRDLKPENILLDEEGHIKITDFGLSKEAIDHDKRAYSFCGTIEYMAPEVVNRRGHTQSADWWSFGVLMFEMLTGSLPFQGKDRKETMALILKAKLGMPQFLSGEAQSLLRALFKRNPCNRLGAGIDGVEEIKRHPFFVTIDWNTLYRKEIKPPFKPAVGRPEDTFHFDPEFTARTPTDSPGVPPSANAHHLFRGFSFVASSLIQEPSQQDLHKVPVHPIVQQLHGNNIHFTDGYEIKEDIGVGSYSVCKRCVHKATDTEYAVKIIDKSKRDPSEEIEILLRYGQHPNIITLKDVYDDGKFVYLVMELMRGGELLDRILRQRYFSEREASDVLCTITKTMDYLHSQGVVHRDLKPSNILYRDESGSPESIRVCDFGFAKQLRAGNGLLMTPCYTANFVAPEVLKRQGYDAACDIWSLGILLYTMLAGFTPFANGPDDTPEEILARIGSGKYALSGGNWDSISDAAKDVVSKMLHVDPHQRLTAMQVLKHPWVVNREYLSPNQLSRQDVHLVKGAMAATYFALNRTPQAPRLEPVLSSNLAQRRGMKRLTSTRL
Procedure: as §1

[11] = molecular target: T1, P38γ (Homo sapiens, UniProt P53778); assay: Kinome profiling P38γ; conditions: read-out: Inhibitory activity P38γ; for inhibition at 0.1 µM: 100 nM
T1 sequence (P53778 1-367): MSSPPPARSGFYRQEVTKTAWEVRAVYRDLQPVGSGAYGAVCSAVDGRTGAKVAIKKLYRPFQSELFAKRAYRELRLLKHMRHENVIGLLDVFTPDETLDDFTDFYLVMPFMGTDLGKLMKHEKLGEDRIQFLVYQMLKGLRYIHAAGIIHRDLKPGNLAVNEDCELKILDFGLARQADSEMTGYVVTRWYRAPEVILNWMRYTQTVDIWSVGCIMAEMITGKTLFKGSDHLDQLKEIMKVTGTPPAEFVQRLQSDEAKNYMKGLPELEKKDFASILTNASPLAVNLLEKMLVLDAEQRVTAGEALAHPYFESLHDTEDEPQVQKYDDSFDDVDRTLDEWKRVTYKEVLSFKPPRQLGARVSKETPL
Procedure: as §1

[12] = molecular target: PKC-β1 (Homo sapiens, UniProt P05771); assay: Kinome profiling PKC-β1; conditions: read-out: Inhibitory activity PKC-β1; for inhibition at 0.1 µM: 100 nM
Procedure: as §1

[13] = molecular target: P70S6KB1 (Homo sapiens, UniProt P23443); assay: Kinome profiling P70S6KB1; conditions: read-out: Inhibitory activity P70S6KB1; for inhibition at 0.1 µM: 100 nM
Procedure: as §1

Chain of LYNA (P07948 whole entry): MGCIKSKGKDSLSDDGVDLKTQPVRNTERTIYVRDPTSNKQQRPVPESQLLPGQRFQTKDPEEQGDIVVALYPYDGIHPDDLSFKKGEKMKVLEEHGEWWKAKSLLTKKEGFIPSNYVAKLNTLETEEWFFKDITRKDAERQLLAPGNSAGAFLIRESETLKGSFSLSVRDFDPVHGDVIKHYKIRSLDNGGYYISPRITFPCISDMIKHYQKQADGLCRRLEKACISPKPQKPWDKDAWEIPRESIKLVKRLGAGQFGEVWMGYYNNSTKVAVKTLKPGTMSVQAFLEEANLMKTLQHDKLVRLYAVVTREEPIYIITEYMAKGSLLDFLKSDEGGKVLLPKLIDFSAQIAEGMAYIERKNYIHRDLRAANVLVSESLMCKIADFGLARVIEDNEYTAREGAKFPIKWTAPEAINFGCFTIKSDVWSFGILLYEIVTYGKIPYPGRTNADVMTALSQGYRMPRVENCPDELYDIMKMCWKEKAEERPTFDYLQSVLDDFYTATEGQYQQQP

| Compound | inhibition at 0.1 µM [1] | inhibition at 1 µM [1] | inhibition at 0.1 µM [2] | inhibition at 1 µM [2] | inhibition at 0.1 µM [3] | inhibition at 1 µM [3] | inhibition at 0.1 µM [4] | inhibition at 1 µM [4] | inhibition at 0.1 µM [5] | inhibition at 1 µM [5] | inhibition at 0.1 µM [6] | inhibition at 1 µM [6] | inhibition at 0.1 µM [7] | inhibition at 1 µM [7] | inhibition at 0.1 µM [8] | inhibition at 1 µM [8] | inhibition at 0.1 µM [9] | inhibition at 1 µM [9] | inhibition at 0.1 µM [10] | inhibition at 1 µM [10] | further results |
| --- | --- | --- | --- | --- | --- | --- | --- | --- | --- | --- | --- | --- | --- | --- | --- | --- | --- | --- | --- | --- | --- |
| COc1cc(-c2cc(-c3ccc(N4CCNCC4)cc3)cnc2N)cc(OC)c1OC [Compound 15, 5-(4-(piperazin-1-yl)phenyl)-3-(3,4,5-trimethoxyphenyl)pyridin-2-amine] | 41% | 84% | 8% | 27% | 7% | 21% | 1% | 19% | 4% | 9% | 4% | 8% | 0% | 6% | 5% | 5% | 2% | 3% | 2% | 3% | inhibition at 0.1 µM [11]: 2%; inhibition at 1 µM [11]: 1%; inhibition at 0.1 µM [12]: 0%; inhibition at 1 µM [12]: 0%; inhibition at 0.1 µM [13]: 0%; inhibition at 1 µM [13]: 0% |
| COc1cc(-c2cc(-c3ccc(N4CCNCC4)cc3)cnc2C)cc(OC)c1OC [Compound 10, 1-(4-(6-methyl-5-(3,4,5-trimethoxyphenyl)pyridin-3-yl)phenyl)piperazine] | 3% | 29% | 0% | 1% | -1% | 2% | 2% | 4% | -2% | 1% | 3% | 3% | 2% | 3% | 2% | 1% | 3% | 3% | 3% | 3% | inhibition at 0.1 µM [11]: -2%; inhibition at 1 µM [11]: 1%; inhibition at 0.1 µM [12]: 0%; inhibition at 1 µM [12]: 1%; inhibition at 0.1 µM [13]: 1%; inhibition at 1 µM [13]: 1% |

From patent US20170190705A1, “Compositions and Methods for Inhibiting BMP” (THE BRIGHAM AND WOMAN'S HOSPITAL, INC., priority 2014, published 2017)
